{"source": "patent US20100247642A1", "about": "“STABLE PHARMACEUTICAL FORMULATION FOR A DPP-IV INHIBITOR” (Phenomix Corporation, priority 2007, published 2010)", "test": "Excipient compatibility: stability of binary mixture of API plus excipient, purity by HPLC", "format": "physicochemical", "description": "A comparison of the stability of the API of the current invention was made, using excipients well-known in the art. […] Compound purity was determined by HPLC. The mixture of the API and the calcium phosphate was allowed to stand under the specified conditions for the stated times. Results are given as percent purity of the API at the given time point. […] Again, the mixture of the API and the microcrystalline cellulose was allowed to stand under the specified conditions for the stated times. Results are given as percent purity of the API at the given time point."}
{"smiles": "O=C(CNC1CCNC1)N1CCCC1B(O)O", "note": "(stereo not shown) [API, pyrrolidin-3-yl-glycyl-boro-proline]", "values": [{"measurement": "% API (percent purity of the API)", "setting": "binary mixture with dibasic calcium phosphate, 2 weeks/loose cap", "result": 77.0, "unit": "%"}, {"measurement": "% API (percent purity of the API)", "setting": "binary mixture with dibasic calcium phosphate, 2 weeks/tight cap", "result": 77.2, "unit": "%"}, {"measurement": "% API (percent purity of the API)", "setting": "binary mixture with dibasic calcium phosphate, 4 weeks/tight cap", "result": 71.7, "unit": "%"}, {"measurement": "drop in API purity", "setting": "binary mixture with dibasic calcium phosphate, within two weeks, regardless of exposure to atmosphere", "result": "over 10%"}, {"measurement": "% API (percent purity of the API)", "setting": "binary mixture with microcrystalline cellulose, 2 weeks/loose cap", "result": 82.1, "unit": "%"}, {"measurement": "% API (percent purity of the API)", "setting": "binary mixture with microcrystalline cellulose, 4 weeks/tight cap", "result": 90.2, "unit": "%"}, {"measurement": "storage stability of the API in the presence of calcium phosphate", "setting": "presence of calcium phosphate", "result": "massive decomposition"}]}
